The experiment has as its target T1, human MCH1R receptor (Homo sapiens, UniProt Q99705).
T1 construct: host or cells: CHO-K1
Nature of the experiment: Binding assay: [125I]-MCH displacement by SPA on CHO-K1 hMCHR1 membranes. The following applies: calculated from IC50 using the Cheng Prushoff equation; 0.2 nM [125I]-MCH; CHO-K1 hMCHRI membranes. As for the experimental part:
The compounds according to the invention were evaluated for their binding to the human MCH1R receptor by the following method:
Compounds. MCH peptide was purchased from Phoenix pharmaceuticals. (Phe^13, [^125I]Tyr^19 Melanine-Concentrating Hormone (human, mouse, rat) ([^125I]-MCH) was obtained from NEN life Science Products. Inc. Boston, Mass. Wheat germ agglutinine SPA beads (RPNQ 0001) were obtained from Amersham-Pharmacia Biotech. All other reagents used are of highest purity from different resources available. Protein Kits, Micro BCA™ Protein Assay Reagent Kit (Cat No. 23235) were purchased from Piece, Rockford, Ill., USA. […]
The radio labeled [^125I]-MCH was diluted with cold MCH in ratio 1:3. […] The results were calculated using Excel program and the curves were drawn using a program GraphPad Prism.
For screening of the substances the amount of the beads used was 0.25 mg/well and the amount of the membrane protein was 4 μg/well. […] The samples were counted using Microbeta counter (Wallac Trilux 1450 Micro beta counter, Wallac, Finland) for 2 minutes and the results were calculated by using the computer program Activity Base.
The Ki value is calculated from IC50 using the Cheng Prushoff equation: Ki=IC50(1+[S]/Km) [Cheng, Y. C.; Prushoff, W. H. Biochem. Pharmacol. 1973, 22, 3099-3108].

Structures can show the parent of a compound that is named as a salt.

T1 sequence (Q99705 whole entry): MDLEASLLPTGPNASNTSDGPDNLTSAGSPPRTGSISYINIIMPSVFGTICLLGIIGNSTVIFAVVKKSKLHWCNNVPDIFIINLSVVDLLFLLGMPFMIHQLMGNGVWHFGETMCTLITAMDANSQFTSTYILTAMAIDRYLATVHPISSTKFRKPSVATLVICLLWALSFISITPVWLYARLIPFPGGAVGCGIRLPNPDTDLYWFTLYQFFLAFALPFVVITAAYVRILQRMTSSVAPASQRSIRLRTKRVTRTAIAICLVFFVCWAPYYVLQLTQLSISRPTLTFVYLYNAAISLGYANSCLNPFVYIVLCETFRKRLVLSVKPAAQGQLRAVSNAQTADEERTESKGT

Take `COc1ccc([C@@]23CC[C@@H](NC(=O)c4ccc(C(F)(F)F)cc4F)C[C@@H]2CN(C)C3)cc1OC` (relative stereo) [Example 44, N-[(3aS*,5R*,7aR*)-7a-(3,4-Dimethoxyphenyl)-2-methyloctahydro-1H-isoindol-5-yl]-2-fluoro-4-(trifluoromethyl)benzamide trifluoroacetate]: the Ki was 288 nM. As for `COc1ccc([C@@]23CC[C@@H](NC(=O)Nc4cc(C)cc(C)c4)C[C@@H]2CN(C)C3)cc1OC` (relative stereo) [Example 48, N-[(3 aS*,5R*,7aR*)-7a-(3,4-Dimethoxyphenyl)-2-methyloctahydro-1H-isoindol-5-yl]-N′-(3,5-dimethylphenyl)urea trifluoroacetate], the Ki was 74 nM.

For orientation: Ki means a measure of affinity in units of concentration, obtained from inhibition or displacement.

The record behind these values is US20070149600A1, “Substituted octahydroisoindoles” (priority 2005, published 2007).
